According to patent publication US8008291B2 (Mimetica Pty Ltd, priority 2008, dated 2011):

Biological target: T1, human MC5R (hMC5R) (Homo sapiens, UniProt P33032)
T1 construct: purchased Perkin Elmer RBXMC5M400UA
Test: Human MC5R radioligand binding assay (membranes, [125I] NDP-MSH displacement)
Details: hMC5R binding; tested as trifluoroacetate or hydrochloride salts, or free bases; read-out: MC5R radioligand IC50
In short: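 Displacement of [125I]NDP-MSH (radioiodinated in house, HPLC-purified) from hMC5R membranes by test compound measured after 1 hr incubation at 37° C.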

T1 sequence (P33032 whole entry): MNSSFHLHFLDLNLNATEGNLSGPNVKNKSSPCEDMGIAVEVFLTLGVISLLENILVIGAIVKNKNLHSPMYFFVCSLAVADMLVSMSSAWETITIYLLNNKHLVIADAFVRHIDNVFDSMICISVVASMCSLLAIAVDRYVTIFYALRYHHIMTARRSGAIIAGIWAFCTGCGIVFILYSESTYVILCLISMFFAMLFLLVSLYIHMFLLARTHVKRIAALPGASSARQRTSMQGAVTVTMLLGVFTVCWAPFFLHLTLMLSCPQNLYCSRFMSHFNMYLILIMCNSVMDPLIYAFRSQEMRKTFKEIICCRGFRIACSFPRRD

Row | Structure (SMILES) | IC50 [nM]
1 | N=C(N)NCCC[C@@H]1N[C@H](CNC(=O)[C@H]2Cc3ccccc3CN2)CCN(CC(c2ccccc2)c2ccccc2)C1=O [Compound 134, (R)—N-(((3S,5S)-1-(2,2-diphenylethyl)-3-(3-guanidinopropyl)-2-oxo-1,4-diazepan-5-yl)methyl)-1,2,3,4-tetrahydroisoquinoline-3-carboxamide] | < 1000
2 | NCCC[C@@H]1N[C@H](CNC(=O)c2ccc3ccccc3c2)CCN(Cc2cc(Cl)ccc2Cl)C1=O [Compound 314, N-(((3S,5S)-3-(3-aminopropyl)-1-(2,5-dichlorobenzyl)-2-oxo-1,4-diazepan-5-yl)methyl)-2-naphthamide] | < 10000
3 | O=C(NC[C@@H]1CCN(CC(c2ccccc2)c2ccccc2)C(=O)[C@H](CCN2CCCCC2)N1)OCc1ccccc1 [Compound 412, benzyl ((3S,5S)-1-(2,2-diphenylethyl)-2-oxo-3-(2-(piperidin-1-yl)ethyl)-1,4-diazepan-5-yl)methylcarbamate] | < 1000
4 | CC(=O)N[C@@H](Cc1c[nH]cn1)C(=O)N[C@H](Cc1ccc2ccccc2c1)[C@@H]1CCN(CC(c2ccccc2)c2ccccc2)C(=O)[C@H](CCCNC(=N)N)N1 [Compound 86, (S)-2-acetamido-N—((R)-1-((3S,5S)-1-(2,2-diphenylethyl)-3-(3-guanidinopropyl)-2-oxo-1,4-diazepan-5-yl)-2-(naphthalen-2-yl)ethyl)-3-(1H-imidazol-4-yl)propanamide] | < 1000
5 | NCCC[C@@H]1N[C@H](CNC(=O)c2ccc(-c3ccccc3)cc2)CCN(CC(c2ccccc2)c2ccccc2)C1=O [Compound 106, N-(((3S,5S)-3-(3-aminopropyl)-1-(2,2-diphenylethyl)-2-oxo-1,4-diazepan-5-yl)methyl)biphenyl-4-carboxamide] | < 1000
6 | COc1ccccc1/C=C/C(=O)NC[C@@H]1CCN(CC(c2ccccc2)c2ccccc2)C(=O)[C@H](CCCNC(=N)N)N1 [Compound 169, (E)-N-(((3S,5S)-1-(2,2-diphenylethyl)-3-(3-guanidinopropyl)-2-oxo-1,4-diazepan-5-yl)methyl)-3-(2-methoxyphenyl)acrylamide] | < 1000
7 | CC(C)NCC[C@@H]1N[C@H](CNC(=O)c2ccc(Cl)c(Cl)c2)CCN(CC(c2ccccc2)c2ccccc2)C1=O [Compound 383, 3,4-dichloro-N-(((3S,5S)-1-(2,2-diphenylethyl)-3-(2-(isopropylamino)ethyl)-2-oxo-1,4-diazepan-5-yl)methyl)benzamide] | < 1000
8 | C[C@@H](CN1CC[C@@H](CNC(=O)c2ccc3ccccc3c2)N[C@@H](CCN2CCCCC2)C1=O)c1ccc(Cl)cc1 [Compound 423, N-(((3S,5S)-1-((R)-2-(4-chlorophenyl)propyl)-2-oxo-3-(2-(piperidin-1-yl)ethyl)-1,4-diazepan-5-yl)methyl)-2-naphthamide] | < 10000
9 | CC(C)[C@@H](CN1CC[C@@H](CNC(=O)c2ccc3ccccc3c2)N[C@@H](CCN2CCCCC2)C1=O)c1ccccc1 [Compound 394, N-(((3S,5S)-1-((R)-3-methyl-2-phenylbutyl)-2-oxo-3-(2-(piperidin-1-yl)ethyl)-1,4-diazepan-5-yl)methyl)-2-naphthamide] | < 1000
10 | CC[C@H](CN1CC[C@@H](CNC(=O)c2ccc3cc(Cl)ccc3c2)N[C@@H](CCNC(=O)NC(C)C)C1=O)c1ccccc1 [Compound 494, 6-chloro-N-(((3S,5S)-3-(2-(3-isopropylureido)ethyl)-2-oxo-1-((S)-2-phenylbutyl)-1,4-diazepan-5-yl)methyl)-2-naphthamide] | < 1000
11 | C[C@@H](N1CC[C@@H](CNC(=O)c2ccc3ccccc3c2)N[C@@H](CCCNC(=N)N)C1=O)C(F)(c1ccccc1)c1ccccc1 [Compound 206, N-(((3S,5S)-1-((R)-1-fluoro-11-diphenylpropan-2-yl)-3-(3-guanidinopropyl)-2-oxo-1,4-diazepan-5-yl)methyl)-2-naphthamide] | < 1000
12 | O=C(NC[C@@H]1CCN(CC(c2ccccc2)c2ccccc2)C(=O)[C@H](CN2CCCCC2)N1)c1ccc2ccccc2c1 [Compound 275, N-(((3S,5S)-1-(2,2-diphenylethyl)-2-oxo-3-(piperidin-1-ylmethyl)-1,4-diazepan-5-yl)methyl)-2-naphthamide] | < 100
13 | C[C@H](C(c1ccccc1)c1ccccc1)N1CC[C@@H](CNC(=O)c2ccc3ccccc3c2)N[C@@H](CCCNC(=N)N)C1=O [Compound 204, N-(((3S,5S)-1-((R)-1,1-diphenylpropan-2-yl)-3-(3-guanidinopropyl)-2-oxo-1,4-diazepan-5-yl)methyl)-2-naphthamide] | < 1000
14 | NCC[C@@H]1N[C@H](CNC(=O)c2ccc3cc(Cl)ccc3c2)CCN(CC(c2ccccc2)c2ccccc2)C1=O [Compound 366, N-(((3S,5S)-3-(2-aminoethyl)-1-(2,2-diphenylethyl)-2-oxo-1,4-diazepan-5-yl)methyl)-6-chloro-2-naphthamide] | < 100
15 | CC[C@H](CN1CCC(CNC(=O)c2ccc3cc(Cl)ccc3c2)NC(C2CCN(C(C)C)CC2)C1=O)c1ccccc1 (stereo partly drawn) [Compound 525, (S)-6-chloro-N-((3-(1-isopropylpiperidin-4-yl)-2-oxo-1-(2-phenylbutyl)-1,4-diazepan-5-yl)methyl)-2-naphthamide] | < 100
16 | CCCCC(CC)C(=O)NC[C@@H]1CCN(CC(c2ccccc2)c2ccccc2)C(=O)[C@H](CCCNC(=N)N)N1 (stereo partly drawn) [Compound 224, N-(((3S,5S)-1-(2,2-diphenylethyl)-3-(3-guanidinopropyl)-2-oxo-1,4-diazepan-5-yl)methyl)-2-ethylhexanamide] | < 1000
17 | CC[C@H](CN1CC[C@@H](CNC(=O)c2ccc(Cl)c(Cl)c2)N[C@@H](CCN2CCCCC2)C1=O)c1ccccc1 [Compound 410, 3,4-dichloro-N-(((3S,5S)-2-oxo-1-((S)-2-phenylbutyl)-3-(2-(piperidin-1-yl)ethyl)-1,4-diazepan-5-yl)methyl)benzamide] | < 100
18 | O=C(CCc1ccc(Cl)cc1)NC[C@@H]1CCN(CC(c2ccccc2)c2ccccc2)C(=O)[C@H](CCN2CCCCC2)N1 [Compound 391, 3-(4-chlorophenyl)-N-(((3S,5S)-1-(2,2-diphenylethyl)-2-oxo-3-(2-(piperidin-1-yl)ethyl)-1,4-diazepan-5-yl)methyl)propanamide] | < 100
19 | C[C@H](CN1CC[C@@H](CNC(=O)c2ccc3ccccc3c2)N[C@@H](CCCN)C1=O)c1ccccc1 [Compound 356, N-(((3S,5S)-3-(3-aminopropyl)-2-oxo-1-((S)-2-phenylpropyl)-1,4-diazepan-5-yl)methyl)-2-naphthamide] | < 1000

More lines, now with the values ahead:

Row | IC50 [nM] | Structure (SMILES)
20 | < 100 | CC[C@H](CN1CC[C@@H](CNC(=O)c2ccc(Cl)c(Cl)c2)N[C@@H](CCN2CCCC2)C1=O)c1ccccc1 [Compound 411, 3,4-dichloro-N-(((3S,5S)-2-oxo-1-((S)-2-phenylbutyl)-3-(2-(pyrrolidin-1-yl)ethyl)-1,4-diazepan-5-yl)methyl)benzamide]
21 | < 100 | N=C(N)NCCC[C@@H]1N[C@H](CNC(=O)c2ccc3ccccc3c2)CCN(CC(Oc2ccccc2)c2ccccc2)C1=O (stereo partly drawn) [Compound 295, N-(((3S,5S)-3-(3-guanidinopropyl)-2-oxo-1-(2-phenoxy-2-phenylethyl)-1,4-diazepan-5-yl)methyl)-2-naphthamide]
22 | < 100 | O=C1[C@H](CCN2CCCCC2)N[C@H](CNCc2ccc(Cl)c(Cl)c2)CCN1CC(c1ccccc1)c1ccccc1 [Compound 456, (3S,5S)-5-((3,4-dichlorobenzylamino)methyl)-1-(2,2-diphenylethyl)-3-(2-(piperidin-1-yl)ethyl)-1,4-diazepan-2-one]
23 | < 100 | CC[C@H](CN1CC[C@@H](CNC(=O)/C=C/c2ccc(Cl)cc2)N[C@@H](CCN2CCCC2)C1=O)c1ccccc1 [Compound 407, (E)-3-(4-chlorophenyl)-N-(((3S,5S)-2-oxo-1-((S)-2-phenylbutyl)-3-(2-(pyrrolidin-1-yl)ethyl)-1,4-diazepan-5-yl)methyl)acrylamide]
24 | < 100 | CCC(CN1CC[C@@H](CNC(=O)c2ccc3cc(Cl)ccc3c2)N[C@@H](CCN2CCCCC2)C1=O)C1CC1 (stereo partly drawn) [Compound 488, 6-chloro-N-(((3S,5S)-1-(2-cyclopropylbutyl)-2-oxo-3-(2-(piperidin-1-yl)ethyl)-1,4-diazepan-5-yl)methyl)-2-naphthamide]
25 | < 100 | CC[C@H](CN1CC[C@@H](CNC(=O)c2ccc(Cl)c(Cl)c2)N[C@@H](CCN2CC(C)CC(C)C2)C1=O)c1ccccc1 (stereo partly drawn) [Compound 449, 3,4-dichloro-N-(((3S,5S)-3-(2-(3,5-dimethylpiperidin-1-yl)ethyl)-2-oxo-1-((S)-2-phenylbutyl)-1,4-diazepan-5-yl)methyl)benzamide]
26 | < 10 | O=C(NC[C@@H]1CCN(CC(c2ccccc2)c2ccccc2)C(=O)[C@H](CCN2CCCCC2)N1)c1ccc2cc(Cl)ccc2c1 [Compound 378, 6-chloro-N-(((3S,5S)-1-(2,2-diphenylethyl)-2-oxo-3-(2-(piperidin-1-yl)ethyl)-1,4-diazepan-5-yl)methyl)-2-naphthamide]
27 | < 100 | CC[C@H](CN1CC[C@@H](CNC(=O)c2ccc(Cl)c(Cl)c2)N[C@@H](CCN2CCOCC2)C1=O)c1ccccc1 [Compound 427, 3,4-dichloro-N-(((3S,5S)-3-(2-morpholinoethyl)-2-oxo-1-((S)-2-phenylbutyl)-1,4-diazepan-5-yl)methyl)benzamide]
28 | < 10 | O=C(NC[C@@H]1CCN(Cc2cc(Cl)cc(Cl)c2)C(=O)[C@H](CCN2CCCCC2)N1)c1ccc(Cl)cc1Cl [Compound 528, 2,4-dichloro-N-(((3S,5S)-1-(3,5-dichlorobenzyl)-2-oxo-3-(2-(piperidin-1-yl)ethyl)-1,4-diazepan-5-yl)methyl)benzamide]
29 | < 100 | CCN(CC)CC[C@@H]1N[C@H](CNC(=O)c2ccc3ccccc3c2)CCN(CC(c2ccccc2)c2ccccc2)C1=O [Compound 362, N-(((3S,5S)-3-(2-(diethylamino)ethyl)-1-(2,2-diphenylethyl)-2-oxo-1,4-diazepan-5-yl)methyl)-2-naphthamide]
